As a reminder, the inhibition is the relative decrease from the control value, in per cent. Usually fraction unbound stands for free concentration divided by total concentration.

The values below come from ChEMBL document CHEMBL4118098, “Discovery of DS28120313 as a potent orally active hepcidin production inhibitor: Design and optimization of novel 4,6-disubstituted indazole derivatives” (Bioorg Med Chem Lett, 2017).

Molecules are shown by their SMILES.

The target of series [1] is RAC-alpha serine/threonine-protein kinase (Homo sapiens) (UniProt P31749). Kind of series: Inhibition of AKT1 (unknown origin) at 0.164 uM relative to control.
For series [2], the target named is Activated CDC42 kinase 1 (Homo sapiens) (UniProt Q07912). Description: Inhibition of ACK (unknown origin) at 0.164 uM relative to control.
Series [3] deals with Proto-oncogene tyrosine-protein kinase Src (Homo sapiens) (UniProt P12931). Description: Inhibition of SRC (unknown origin) at 0.164 uM relative to control.
Proto-oncogene tyrosine-protein kinase Src (Homo sapiens), sequence (P12931 2-536 limits assumed): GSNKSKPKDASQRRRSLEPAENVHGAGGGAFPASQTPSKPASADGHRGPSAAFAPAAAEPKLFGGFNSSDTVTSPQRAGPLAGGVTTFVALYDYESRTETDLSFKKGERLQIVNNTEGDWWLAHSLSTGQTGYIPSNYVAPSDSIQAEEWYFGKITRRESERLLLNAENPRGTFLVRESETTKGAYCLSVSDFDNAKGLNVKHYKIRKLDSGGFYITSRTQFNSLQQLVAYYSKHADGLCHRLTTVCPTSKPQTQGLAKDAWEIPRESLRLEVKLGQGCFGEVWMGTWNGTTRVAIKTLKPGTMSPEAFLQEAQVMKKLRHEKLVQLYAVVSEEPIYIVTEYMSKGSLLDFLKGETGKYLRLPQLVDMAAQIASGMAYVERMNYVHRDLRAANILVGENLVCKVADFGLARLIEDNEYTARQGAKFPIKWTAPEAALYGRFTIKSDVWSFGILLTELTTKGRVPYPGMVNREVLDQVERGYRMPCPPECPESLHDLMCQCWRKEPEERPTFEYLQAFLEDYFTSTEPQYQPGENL
Series [4] has as its target Serine/threonine-protein kinase Sgk1 (Homo sapiens) (UniProt O00141). Description: Inhibition of SGK1 (unknown origin) at 0.164 uM relative to control.
Series [5] has as its target Ribosomal protein S6 kinase (Homo sapiens) (UniProt P51812+Q9UBS0+O75676+Q15349+O75582+P23443+Q9UK32+Q15418). Kind of series: Inhibition of p70S6K (unknown origin) at 0.164 uM relative to control. In kind it is protein assay.
The nature of series [6]: Fraction unbound in mouse plasma. In kind it is ADME, cell-free.
In series [7] the target is T1, Mitogen-activated protein kinase 12 (Homo sapiens) (UniProt P53778).
T1 sequence (whole entry): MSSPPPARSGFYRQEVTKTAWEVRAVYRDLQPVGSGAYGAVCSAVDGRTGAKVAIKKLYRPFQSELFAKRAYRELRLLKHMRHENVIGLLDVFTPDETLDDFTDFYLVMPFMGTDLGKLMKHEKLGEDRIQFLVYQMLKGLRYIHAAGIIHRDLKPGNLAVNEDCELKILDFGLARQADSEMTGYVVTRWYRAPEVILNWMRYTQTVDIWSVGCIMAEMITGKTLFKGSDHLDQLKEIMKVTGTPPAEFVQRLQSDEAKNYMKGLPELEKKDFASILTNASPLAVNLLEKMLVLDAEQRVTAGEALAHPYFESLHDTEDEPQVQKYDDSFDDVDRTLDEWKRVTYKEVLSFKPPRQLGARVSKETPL
Kind of series: Inhibition of p38-gamma (unknown origin) at 0.164 uM relative to control.

The target of series [8] is Dual specificity tyrosine-phosphorylation-regulated kinase 2 (Homo sapiens) (UniProt Q92630). Description: Inhibition of DYRK2 (unknown origin) at 0.164 uM relative to control.
Dual specificity tyrosine-phosphorylation-regulated kinase 2 (Homo sapiens), sequence (Q92630 whole entry): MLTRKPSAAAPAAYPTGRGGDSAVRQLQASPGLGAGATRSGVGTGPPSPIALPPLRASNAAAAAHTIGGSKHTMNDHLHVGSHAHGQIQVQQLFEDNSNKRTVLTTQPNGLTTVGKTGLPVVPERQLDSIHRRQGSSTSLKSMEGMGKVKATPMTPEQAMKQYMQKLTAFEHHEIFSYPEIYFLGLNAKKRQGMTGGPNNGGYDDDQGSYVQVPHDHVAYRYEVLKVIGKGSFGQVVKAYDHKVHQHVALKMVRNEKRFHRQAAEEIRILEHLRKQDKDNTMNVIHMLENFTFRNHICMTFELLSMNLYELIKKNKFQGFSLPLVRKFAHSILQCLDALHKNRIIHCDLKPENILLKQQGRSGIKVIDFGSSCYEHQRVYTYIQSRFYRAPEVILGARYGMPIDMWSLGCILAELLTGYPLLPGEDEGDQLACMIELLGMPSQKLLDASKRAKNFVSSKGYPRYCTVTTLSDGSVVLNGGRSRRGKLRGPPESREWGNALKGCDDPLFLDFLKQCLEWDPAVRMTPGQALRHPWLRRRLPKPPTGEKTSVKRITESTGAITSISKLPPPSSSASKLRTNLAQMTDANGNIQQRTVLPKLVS
The subject of series [9] is Tyrosine-protein kinase ABL1 (Homo sapiens), P00519 [H396P]. Description: Inhibition of Abl H396P mutant (unknown origin) at 0.164 uM relative to control.
Series [10] addresses Ephrin type-A receptor 5 (Homo sapiens) (UniProt P54756). Description: Inhibition of EPHA5 (unknown origin) at 0.164 uM relative to control.
In series [11] the target is Rho-associated protein kinase 1 (Homo sapiens) (UniProt Q13464). Description: Inhibition of ROCK1 (unknown origin) at 0.164 uM relative to control.
Series [12] deals with Epidermal growth factor receptor (Homo sapiens) (UniProt P00533). Kind of series: Inhibition of EGFR (unknown origin) at 0.45 uM relative to control.
The subject of series [13] is Receptor-type tyrosine-protein kinase FLT3 (Homo sapiens), P36888 [D835Y]. Description: Inhibition of Flt3 D835Y mutant (unknown origin) at 0.19 uM relative to control.
Series [14] concerns the target Protein kinase C gamma type (Homo sapiens) (UniProt P05129). Kind of series: Inhibition of PKC-gamma (unknown origin) at 0.19 uM relative to control.
For series [15], the target named is Serine/threonine-protein kinase pim-3 (Homo sapiens) (UniProt Q86V86). Description: Inhibition of PIM3 (unknown origin) at 0.19 uM relative to control.
The target of series [16] is Tyrosine-protein kinase ABL2 (Homo sapiens) (UniProt P42684). Description: Inhibition of Arg (unknown origin) at 0.19 uM relative to control.
In series [17] the target is Ribosomal protein S6 kinase alpha-3 (Homo sapiens) (UniProt P51812). Description: Inhibition of RSK2 (unknown origin) at 0.19 uM relative to control.
Ribosomal protein S6 kinase alpha-3 (Homo sapiens), sequence (P51812 whole entry): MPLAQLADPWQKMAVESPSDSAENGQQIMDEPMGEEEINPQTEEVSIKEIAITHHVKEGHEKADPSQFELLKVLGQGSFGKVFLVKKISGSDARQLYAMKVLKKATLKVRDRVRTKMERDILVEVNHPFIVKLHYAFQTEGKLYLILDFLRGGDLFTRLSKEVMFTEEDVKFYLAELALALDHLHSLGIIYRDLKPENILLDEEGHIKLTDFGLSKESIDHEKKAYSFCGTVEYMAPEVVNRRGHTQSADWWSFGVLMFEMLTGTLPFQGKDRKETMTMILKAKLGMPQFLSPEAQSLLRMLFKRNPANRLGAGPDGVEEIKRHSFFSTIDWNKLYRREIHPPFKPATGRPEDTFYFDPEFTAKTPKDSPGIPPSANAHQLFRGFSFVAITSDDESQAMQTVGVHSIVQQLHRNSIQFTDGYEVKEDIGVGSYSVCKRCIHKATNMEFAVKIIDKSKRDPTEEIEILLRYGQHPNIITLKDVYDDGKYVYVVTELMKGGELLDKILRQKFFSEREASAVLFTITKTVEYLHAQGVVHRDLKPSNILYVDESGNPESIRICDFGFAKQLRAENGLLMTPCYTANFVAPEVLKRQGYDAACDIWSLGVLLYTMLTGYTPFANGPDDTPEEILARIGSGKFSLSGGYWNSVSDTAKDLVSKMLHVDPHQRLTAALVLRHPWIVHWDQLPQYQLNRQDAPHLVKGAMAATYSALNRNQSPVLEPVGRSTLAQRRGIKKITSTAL
Series [18] deals with Tyrosine-protein kinase Fes/Fps (Homo sapiens) (UniProt P07332). Description: Inhibition of FES (unknown origin) at 0.19 uM relative to control.
Tyrosine-protein kinase Fes/Fps (Homo sapiens), sequence (P07332 whole entry): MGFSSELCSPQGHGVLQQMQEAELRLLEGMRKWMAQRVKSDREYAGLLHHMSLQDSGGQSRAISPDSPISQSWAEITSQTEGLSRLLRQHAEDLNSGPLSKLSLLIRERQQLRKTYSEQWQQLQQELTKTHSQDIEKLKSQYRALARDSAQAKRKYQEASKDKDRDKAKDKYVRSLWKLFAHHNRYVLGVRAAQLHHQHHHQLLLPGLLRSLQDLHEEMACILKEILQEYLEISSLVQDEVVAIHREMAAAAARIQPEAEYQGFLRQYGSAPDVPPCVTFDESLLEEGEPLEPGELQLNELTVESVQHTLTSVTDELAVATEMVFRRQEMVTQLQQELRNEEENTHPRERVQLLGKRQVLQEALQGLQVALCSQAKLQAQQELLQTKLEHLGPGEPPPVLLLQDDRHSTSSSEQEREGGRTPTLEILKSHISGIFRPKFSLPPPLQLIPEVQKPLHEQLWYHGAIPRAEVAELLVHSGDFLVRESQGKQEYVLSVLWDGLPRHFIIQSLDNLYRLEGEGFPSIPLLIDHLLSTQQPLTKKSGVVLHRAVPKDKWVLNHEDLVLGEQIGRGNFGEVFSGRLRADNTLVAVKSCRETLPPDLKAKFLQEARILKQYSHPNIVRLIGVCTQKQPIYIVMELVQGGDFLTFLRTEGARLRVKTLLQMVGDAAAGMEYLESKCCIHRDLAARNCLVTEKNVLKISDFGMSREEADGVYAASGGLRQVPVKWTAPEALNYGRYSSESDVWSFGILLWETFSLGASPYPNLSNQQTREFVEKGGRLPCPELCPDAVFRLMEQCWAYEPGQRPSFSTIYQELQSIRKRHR
The target of series [19] is Ephrin type-B receptor 2 (Homo sapiens) (UniProt P29323). Kind of series: Inhibition of EPHB2 (unknown origin) at 0.19 uM relative to control.
Ephrin type-B receptor 2 (Homo sapiens), sequence (P29323 whole entry): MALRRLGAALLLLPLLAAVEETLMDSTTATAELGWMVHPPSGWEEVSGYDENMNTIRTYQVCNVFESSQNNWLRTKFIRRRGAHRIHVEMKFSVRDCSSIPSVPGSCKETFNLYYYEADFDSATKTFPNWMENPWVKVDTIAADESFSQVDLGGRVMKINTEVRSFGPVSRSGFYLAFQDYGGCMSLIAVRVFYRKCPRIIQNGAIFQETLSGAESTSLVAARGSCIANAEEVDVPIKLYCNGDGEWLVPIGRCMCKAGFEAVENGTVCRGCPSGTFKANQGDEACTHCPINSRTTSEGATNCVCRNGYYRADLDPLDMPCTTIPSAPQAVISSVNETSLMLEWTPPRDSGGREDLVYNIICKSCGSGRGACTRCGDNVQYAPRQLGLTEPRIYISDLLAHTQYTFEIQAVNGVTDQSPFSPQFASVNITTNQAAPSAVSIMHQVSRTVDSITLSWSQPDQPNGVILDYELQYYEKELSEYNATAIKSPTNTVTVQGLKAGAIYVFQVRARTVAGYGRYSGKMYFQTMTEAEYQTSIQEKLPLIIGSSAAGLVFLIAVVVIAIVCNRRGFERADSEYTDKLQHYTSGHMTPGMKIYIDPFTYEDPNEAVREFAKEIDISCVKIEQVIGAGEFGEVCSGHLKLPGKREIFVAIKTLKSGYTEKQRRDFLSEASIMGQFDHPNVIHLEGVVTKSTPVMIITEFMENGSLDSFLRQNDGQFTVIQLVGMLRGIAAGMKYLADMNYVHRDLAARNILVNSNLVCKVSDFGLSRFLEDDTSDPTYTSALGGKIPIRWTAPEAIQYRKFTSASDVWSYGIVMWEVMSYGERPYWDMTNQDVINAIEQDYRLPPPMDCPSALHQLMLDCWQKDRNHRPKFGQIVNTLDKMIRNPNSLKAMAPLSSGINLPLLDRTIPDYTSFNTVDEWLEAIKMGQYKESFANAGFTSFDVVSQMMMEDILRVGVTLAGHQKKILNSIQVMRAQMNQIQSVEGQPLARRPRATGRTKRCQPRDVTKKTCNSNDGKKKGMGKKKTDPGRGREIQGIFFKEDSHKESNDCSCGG
The target of series [20] is Serine/threonine-protein kinase D3 (Homo sapiens) (UniProt O94806). Kind of series: Inhibition of PKD3 (unknown origin) at 0.19 uM relative to control.
The target of series [21] is Dual specificity tyrosine-phosphorylation-regulated kinase 4 (Homo sapiens) (UniProt Q9NR20). Description: Inhibition of DYRK4 (unknown origin) at 0.19 uM relative to control.
The target in series [22] is Serine/threonine-protein kinase Chk2 (Homo sapiens) (UniProt O96017). Kind of series: Inhibition of CHK2 (unknown origin) at 0.19 uM relative to control.
Series [23] addresses SRSF protein kinase 3 (Homo sapiens) (UniProt Q9UPE1). Kind of series: Inhibition of MSSK1 (unknown origin) at 0.19 uM relative to control.
Series [24] has as its target T2, Testis-specific serine/threonine-protein kinase 2 (Homo sapiens) (UniProt Q96PF2).
T2 sequence (whole entry): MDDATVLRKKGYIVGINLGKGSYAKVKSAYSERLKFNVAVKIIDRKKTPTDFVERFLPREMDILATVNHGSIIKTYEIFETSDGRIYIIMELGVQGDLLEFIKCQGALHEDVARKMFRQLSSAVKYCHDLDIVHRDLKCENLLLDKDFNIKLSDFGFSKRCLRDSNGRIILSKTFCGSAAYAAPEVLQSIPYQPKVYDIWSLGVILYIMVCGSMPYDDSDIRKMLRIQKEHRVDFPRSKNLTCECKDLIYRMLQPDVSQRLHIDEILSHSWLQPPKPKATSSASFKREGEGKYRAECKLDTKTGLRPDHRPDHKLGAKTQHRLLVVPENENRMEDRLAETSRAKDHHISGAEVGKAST
Description: Inhibition of TSSK2 (unknown origin) at 0.19 uM relative to control.

For series [25], the target named is Tyrosine-protein kinase receptor TYRO3 (Homo sapiens) (UniProt Q06418). Kind of series: Inhibition of TYRO3 (unknown origin) at 0.19 uM relative to control.
Series [26] concerns the target Serine/threonine-protein kinase MARK1 (Homo sapiens) (UniProt Q9P0L2). Kind of series: Inhibition of MARK1 (unknown origin) at 0.19 uM relative to control.
Series [27] concerns the target Serine/threonine-protein kinase BRSK1 (Homo sapiens) (UniProt Q8TDC3). Description: Inhibition of BRSK1 (unknown origin) at 0.19 uM relative to control.
Series [28] deals with Rho-associated protein kinase 2 (Homo sapiens) (UniProt O75116). Kind of series: Inhibition of ROCK2 (unknown origin) at 0.19 uM relative to control.
Series [29] concerns the target Mitogen-activated protein kinase 3 (Homo sapiens) (UniProt P27361). Description: Inhibition of Erk1 (unknown origin) at 0.19 uM relative to control.
Series [30] addresses CDK4/Cyclin D3 (Homo sapiens) (UniProt P11802+P30281). Description: Inhibition of CDK4/CyclinD3 (unknown origin) at 0.19 uM relative to control. The class given is protein-complex assay.

Ephrin type-A receptor 5 (Homo sapiens), sequence (P54756 whole entry): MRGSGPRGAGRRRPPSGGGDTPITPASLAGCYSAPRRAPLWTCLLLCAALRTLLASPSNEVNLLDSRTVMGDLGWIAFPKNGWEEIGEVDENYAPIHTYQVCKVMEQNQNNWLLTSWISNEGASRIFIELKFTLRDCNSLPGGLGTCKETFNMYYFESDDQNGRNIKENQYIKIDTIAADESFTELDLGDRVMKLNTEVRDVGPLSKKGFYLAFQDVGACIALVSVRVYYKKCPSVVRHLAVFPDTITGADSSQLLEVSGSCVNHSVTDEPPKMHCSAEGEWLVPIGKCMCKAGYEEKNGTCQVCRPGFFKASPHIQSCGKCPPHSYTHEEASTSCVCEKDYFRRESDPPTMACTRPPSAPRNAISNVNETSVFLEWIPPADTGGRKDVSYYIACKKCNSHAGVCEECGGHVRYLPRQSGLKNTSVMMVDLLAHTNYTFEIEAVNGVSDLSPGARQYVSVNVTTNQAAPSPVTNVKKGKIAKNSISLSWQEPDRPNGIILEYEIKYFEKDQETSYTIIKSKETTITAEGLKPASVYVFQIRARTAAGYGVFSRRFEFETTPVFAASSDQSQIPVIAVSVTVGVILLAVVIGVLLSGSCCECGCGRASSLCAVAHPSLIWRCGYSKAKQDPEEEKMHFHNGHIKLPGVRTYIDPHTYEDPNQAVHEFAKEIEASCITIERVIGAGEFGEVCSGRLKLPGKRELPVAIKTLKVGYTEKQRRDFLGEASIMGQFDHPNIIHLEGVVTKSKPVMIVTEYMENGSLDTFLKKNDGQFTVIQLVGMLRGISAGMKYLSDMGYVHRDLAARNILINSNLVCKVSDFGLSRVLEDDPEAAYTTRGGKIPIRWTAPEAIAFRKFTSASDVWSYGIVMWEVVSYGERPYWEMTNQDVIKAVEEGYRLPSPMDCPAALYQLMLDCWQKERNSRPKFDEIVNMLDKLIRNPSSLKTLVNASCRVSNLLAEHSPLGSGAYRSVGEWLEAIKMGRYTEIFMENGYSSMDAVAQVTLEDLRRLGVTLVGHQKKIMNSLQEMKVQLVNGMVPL

In the case of `COC(=O)Nc1cc(-c2c(C3CC3)n[nH]c2C)cc2[nH]ncc12`, the inhibition worked out at 9.3% in [1]; 0.7% in series [2]; 5.7% in [3]; 0.3% in series [4]; 14.7% in series [5]; 0.3% in series [7]. The inhibition in [8] was 4.7%; in [9], 1.7%; in series [10] it was -1%; in [11], -0.3%. In addition, the fraction unbound in series [6] turned out to be 0.24.
Take `Cc1n[nH]c(C)c1-c1ccc2c(NC(=O)c3ccc(N4CCN(C)CC4)cc3)n[nH]c2c1`: the inhibition in [12] is -6%.
As to `Cc1[nH]nc(C2CC2)c1-c1ccc2c(-c3ccc(N4CCN(C)CC4)nc3)n[nH]c2c1`, the inhibition was 93.7% in series [13]; -7.3% in series [14]; -3.7% in series [15]; 57% in series [16]; -5.7% in [17]; -5% in series [18]. Moreover, the inhibition is 4% in series [19]; 4.7% in [20]; -0.7% in [21]; 3% in series [22]; -9.3% in series [23]; -2% in series [24]. The inhibition in series [25] was 10%; in series [26] it was -5.3%; in series [27] it was 1.7%; in series [28], -1%; in [29], 3.7%; in [30] it was -8%.
